Non-standard residues stand in square brackets, D forms with d. Residues, ends and D or L forms follow the SMILES beside them. No end group written: not given here. *: point of attachment. Palmitoyl = CCCCCCCCCCCCCCCC(=O)*
Experiments:
[1] = test system: other bacteria tested (C. granulosum, C. avidum, S. aureus, S. epidermis, C. striatum); assay: In vitro killing assay on the other (non C. acnes) bacteria; format: cell-based
Procedure: Inoculi of mid-log phase bacteria were prepared by incubating the above isolated colonies from blood agar plates in Tryptic Soy Broth (TSB) medium (Becton Dickinson, Le Pont de Clax, France) for 2.5 hours and then diluted to the concentration needed.
For the in vitro killing assay on mid-log phase bacteria, each of the above strains were resuspended to a concentration of 1×10^6 bacteria/ml in phosphate buffered saline (PBS). Subsequently, 200 μl was added to a concentration range of peptides Wildtype BLP-7, BMBN-1, BMBN-2, BMBN-3, BMBN-4, BMBN-5, BMBN-6, and BMBN-7 that were lyophilized in advance. Subsequently, the bacteria-peptide mixtures were incubated for 1 hour at 37° C. To establish the killing capacity and specificity of these peptides, the suspensions were serially diluted and plated onto DST agar plates to measure viable CFU counts. IC90, IC99 and IC99.9 values were calculated by linear regression analysis. […] Results were pooled from 4 independent experiments concerning the above C. acnes strains (FIG. 2B) and 5 independent experiments concerning the other non C. acnes related strains (FIG. 2B continued). The results are expressed as mean±standard deviation (SD).

human erythrocytes = test system: human erythrocytes
Procedure: A hemolytic assay was performed as previously described by Zelezetsky et al.. Freshly drawn human erythrocytes were rinsed three times with phosphate buffered saline (PBS) and resuspended in PBS to 4% (v/v). […] PBS and 0.1% (v/v) Triton-X 100 were used as 0% and 100% hemolytic control respectively. Plates were incubated at 37° C. for 1 hour.
Subsequently, the plate was centrifuged and the supernatant was transferred to a new plate. The release of hemoglobin in the supernatant was monitored at absorbance of 450 nm using an Infinite M1000 Microplate reader (Tecan). Results were pooled from three independent experiments and expressed as mean±SD. HC10 and HC50 were defined as the peptide concentrations causing 10% and 50% hemolysis on human erythrocytes, respectively.

C. acnes biofilm = details: strains with the strongest C. acnes biofilm formation ability
Procedure: Briefly, 250 μl of bacterial cells (1×10^6 CFU/ml) of 10 strains (C. acnes 3, 4, 23, 25, 55, 61, 62, 63, 68, 78) (FIG. 9) with the strongest biofilm formation ability were inoculated in a Greiner polyethylene 96well plate (Sigma Aldrich); TSB culture medium containing no bacteria was used as the blank control, and the plate was incubated at 37° C. for 24 hours. The culture medium was subsequently removed, and wells were carefully washed with PBS three times to remove C. acnes bacteria.
Subsequently, 250 μl of TSB culture medium containing the aforementioned polypeptides in serial doubling dilutions was added to each well. TSB medium without any of the polypeptides was used as a negative control, and plates were incubated at 37° C. for 24 hours. If OD600<0.1, there was no bacterial growth, and the lowest concentration without bacterial growth at this time point was recorded; this is the Minimum Biofilm Inhibitory Concentration (MBIC). Then, the cells and polypeptides in the 96-well cell culture plate were washed with PBS, and 250 μl of TSB culture medium was added to each well.
The plates were incubated at 37° C. for 24 hours to re-grow the surviving biofilm bacteria. […] The lowest concentration at which no bacterial growth was recorded is the minimal biofilm eradication concentration (MBEC).

CCCCCCCCCCCCCCCC(=O)N[C@@H](CCC(=O)O)C(=O)N[C@@H](CCCNC(=N)N)C(=O)N[C@@H](CC(N)=O)C(=O)N[C@@H](CC(N)=O)C(=O)N[C@@H](Cc1ccccc1)C(=O)NCC(=O)NCC(=O)NCC(=O)N[C@H](CC(N)=O)C(=O)N[C@H](C)C(=O)N[C@H](Cc1ccccc1)C(=O)N[C@H](Cc1c[nH]cn1)C(=O)N[C@H](CCC(=O)O)C(=O)N[C@H](C)C(=O)N[C@H](CC(C)C)C(=O)NCC(=O)N[C@H](CCCCN)C(=O)N[C@H](C)C(=O)N[C@H](CC(C)C)C(=O)NCC(=O)N[C@H](CCCCN)C(=O)N[C@H](CC(C)C)C(=O)N[C@H](C)C(=O)N[C@H](CO)C(=O)N[C@H](CCC(=O)O)C(=O)NCC(=O)N[C@H](C)C(=O)N[C@H](CO)C(=O)N[C@H](CC(C)C)C(=O)N[C@H](CC(C)C)C(=O)N[C@H](C)C(=O)NCC(=O)NCC(=O)N[C@@H](C(=O)NCC(N)=O)[C@H](C)CC [BMBN-6] (Palmitoyl-ERNNFGGG[dN][dA][dF][dH][dE][dA][dL]G[dK][dA][dL]G[dK][dL][dA][dS][dE]G[dA][dS][dL][dL][dA]GG[dI]G-NH2)
effect on other, untargeted bacteria / specificity towards C. acnes (in words) [1]: specificity towards C. acnes only negligibly decreased

CCCCCCCCCCCCCCCC(=O)N[C@H](CCC(=O)O)C(=O)N[C@H](CCCNC(=N)N)C(=O)N[C@H](CC(N)=O)C(=O)N[C@H](CC(N)=O)C(=O)N[C@H](Cc1ccccc1)C(=O)NCC(=O)NCC(=O)NCC(=O)NCC(=O)N[C@@H](C(=O)NCC(=O)NCC(=O)N[C@H](C)C(=O)N[C@H](CC(C)C)C(=O)N[C@H](CC(C)C)C(=O)N[C@H](CO)C(=O)N[C@H](C)C(=O)NCC(=O)N[C@H](CCC(=O)O)C(=O)N[C@H](CO)C(=O)N[C@H](C)C(=O)N[C@H](CC(C)C)C(=O)N[C@H](CCCCN)C(=O)NCC(=O)N[C@H](CC(C)C)C(=O)N[C@H](C)C(=O)N[C@H](CCCCN)C(=O)NCC(=O)N[C@H](CC(C)C)C(=O)N[C@H](C)C(=O)N[C@H](CCC(=O)O)C(=O)N[C@H](Cc1c[nH]cn1)C(=O)N[C@H](Cc1ccccc1)C(=O)N[C@H](C)C(=O)N[C@H](CC(N)=O)C(N)=O)[C@H](C)CC [BMBN-7] (Palmitoyl-[dE][dR][dN][dN][dF]GGGG[dI]GG[dA][dL][dL][dS][dA]G[dE][dS][dA][dL][dK]G[dL][dA][dK]G[dL][dA][dE][dH][dF][dA][dN]-NH2)
hemolytic activity (in words) (human erythrocytes): negligible hemolytic activity
MBIC (concentration that inhibits the biofilm) (C. acnes biofilm): 56 to 117 µg/mL

CCCCCCCCCCCCCCCC(=O)NCC(=O)N[C@H](C(=O)NCC(=O)NCC(=O)N[C@@H](C)C(=O)N[C@@H](CC(C)C)C(=O)N[C@@H](CC(C)C)C(=O)N[C@@H](CO)C(=O)N[C@@H](C)C(=O)NCC(=O)N[C@@H](CCCCN)C(=O)N[C@@H](CO)C(=O)N[C@@H](C)C(=O)N[C@@H](CC(C)C)C(=O)N[C@@H](CCCCN)C(=O)NCC(=O)N[C@@H](CC(C)C)C(=O)N[C@@H](C)C(=O)N[C@@H](CCCCN)C(=O)NCC(=O)N[C@@H](CC(C)C)C(=O)N[C@@H](C)C(=O)N[C@@H](CCC(=O)O)C(=O)N[C@@H](Cc1c[nH]cn1)C(=O)N[C@@H](Cc1ccccc1)C(=O)N[C@@H](C)C(=O)N[C@@H](CC(N)=O)C(N)=O)[C@@H](C)CC [BMBN-1] (Palmitoyl-GIGGALLSAGKSALKGLAKGLAEHFAN-NH2)
MBEC (concentration that eradicates the biofilm) (C. acnes biofilm): 235 to 496 µg/mL

GIGGALLSAGKSALKGLAKGLAEHFAN-NH2 [Wildtype BLP-7, reference compound]
hemolytic activity (in words) (human erythrocytes): within the range of negligible hemolytic activity

From patent US20240254175A1, “NOVEL SELECTIVE ANT[…] PEPTIDES” (BOMBI BIOMICS BV, priority 2021, published 2024)
